Assay results from patent publication US20070049593A1 (priority 2004, published 2007).
Counter-ions that a name gives are not always drawn.

These molecules were tested against T1, HCV polymerase (Hepatitis C virus genotype 1b, UniProt P26663) (assay: biochemical).
T1 construct: a region encoding NS5B (J Virol 1991 March, 65(3), 1105-13, 544 amino acids after deletion of 47 amino acids on the C-terminal); 6xHis (C); made in house; host or cells: Escherichia coli
T1 sequence (P26663 2420-2963): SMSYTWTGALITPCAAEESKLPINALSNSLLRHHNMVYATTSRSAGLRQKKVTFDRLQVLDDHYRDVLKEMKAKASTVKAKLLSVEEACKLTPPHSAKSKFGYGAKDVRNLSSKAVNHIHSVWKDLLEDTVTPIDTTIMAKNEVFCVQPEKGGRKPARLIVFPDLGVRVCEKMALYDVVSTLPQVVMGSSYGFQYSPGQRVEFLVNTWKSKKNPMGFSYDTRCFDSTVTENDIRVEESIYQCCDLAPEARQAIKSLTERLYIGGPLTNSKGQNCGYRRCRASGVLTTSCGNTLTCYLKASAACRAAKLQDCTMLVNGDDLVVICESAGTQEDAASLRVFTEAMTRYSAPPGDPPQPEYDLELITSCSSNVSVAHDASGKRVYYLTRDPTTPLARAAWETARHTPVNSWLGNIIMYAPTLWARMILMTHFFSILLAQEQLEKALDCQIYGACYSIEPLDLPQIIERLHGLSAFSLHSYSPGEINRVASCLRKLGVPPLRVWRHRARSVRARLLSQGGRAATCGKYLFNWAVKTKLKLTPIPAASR
Design: species or system HCV BK strain
Summary of the method: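 Recombinant HCV BK-strain NS5B (C-terminal 47 aa deleted, His6-tagged, E. coli), 0.5 μg/ml, run with 5 μg/ml in vitro-transcribed RNA template (polyU/3′X), ATP/GTP/CTP 50 μM, UTP 2 μM plus [3H]UTP, pH 7.5, 25° C, 90 min. TCA-precipitated RNA counted by scintillation; IC50 from activity with vs without compound.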
Work on COc1ccc2c(c1)OCCn1c-2c(C2CCCCC2)c2ccc(C(=O)NC(C)(C)c3ccc(/C=C/C(=O)O)cc3)cc21 [Example 2-422, (E)-3-(4-{1-[(12-cyclohexyl-3-methoxy-6,7-dihydro-5-oxa-7a-azadibenzo[a,e]azulene-9-carbonyl)amino]-1-methylethyl}phenyl)acrylic acid] yielded an IC50 of under 100 nM. COc1ccc2c(c1)OCCn1c-2c(C2CCCCC2)c2ccc(C(=O)NC(C)(C)c3ccc(CCC(=O)O)cc3)cc21 [Example 2-423, 3-(4-{1-[(12-cyclohexyl-3-methoxy-6,7-dihydro-5-oxa-7a-azadibenzo[a,e]azulene-9-carbonyl)amino]-1-methylethyl}phenyl)propionic acid] gave an IC50 of under 100 nM. Work on COCCCOc1ccc(C[C@H](NC(=O)c2ccc3c(C4CCCCC4)c4n(c3c2)CCOc2cc(OC)ccc2-4)C(=O)OC)cc1 [Example 2-424, methyl (S)-2-[(12-cyclohexyl-3-methoxy-6,7-dihydro-5-oxa-7a-azadibenzo[a,e]azulene-9-carbonyl)amino]-3-[4-(3-methoxypropoxy)phenyl]propionate] yielded an IC50 of under 100 nM. With COc1ccc2c(c1)OCCn1c-2c(C2CCCCC2)c2ccc(C(=O)N[C@@H](Cc3ccc(NC(=O)N(C)C)cc3)C(=O)O)cc21 [Example 2-425, (S)-2-[(12-cyclohexyl-3-methoxy-6,7-dihydro-5-oxa-7a-azadibenzo[a,e]azulene-9-carbonyl)amino]-3-[4-(3,3-dimethylureido)phenyl]propionic acid] the IC50 was under 100 nM. For CONC(=O)[C@H](Cc1ccc(O)cc1)NC(=O)c1ccc2c(C3CCCCC3)c3n(c2c1)CCOc1cc(OC)ccc1-3 [Example 2-426, N—[(S)-2-(4-hydroxyphenyl)-1-(methoxycarbamoyl)ethyl]-12-cyclohexyl-3-methoxy-6,7-dihydro-5-oxa-7a-azadibenzo[a,e]azulene-9-carboxamide], the IC50 was under 100 nM. COc1ccc2c(c1)OCCn1c-2c(C2CCCCC2)c2ccc(C(=O)N[C@@H](Cc3ccc(O)cc3)C(=O)N(C)OC)cc21 [Example 2-427, N—[(S)-2-(4-hydroxyphenyl)-1-(N-methoxy-N-methylcarbamoyl)ethyl]-12-cyclohexyl-3-methoxy-6,7-dihydro-5-oxa-7a-azadibenzo[a,e]azulene-9-carboxamide] gave an IC50 of under 100 nM. Work on COc1ccc2c(c1)OCCn1c-2c(C2CCCCC2)c2ccc(C(=O)N[C@@H](Cc3ccc(OCc4ccccc4)cc3)c3noc(=O)[nH]3)cc21 [Example 2-428, N—[(S)-2-(4-benzyloxyphenyl)-1-(5-oxo-4,5-dihydro-1,2,4-oxadiazol-3-yl)ethyl]-12-cyclohexyl-3-methoxy-6,7-dihydro-5-oxa-7a-azadibenzo[a,e]azulene-9-carboxamide] yielded an IC50 of under 100 nM. COc1ccc2c(c1)OCCn1c-2c(C2CCCCC2)c2ccc(C(=O)N[C@@H](Cc3ccc(O)cc3)c3noc(=O)[nH]3)cc21 [Example 2-429, N—[(S)-2-(4-hydroxyphenyl)-1-(5-oxo-4,5-dihydro-1,2,4-oxadiazol-3-yl)ethyl]-12-cyclohexyl-3-methoxy-6,7-dihydro-5-oxa-7a-azadibenzo[a,e]azulene-9-carboxamide] was tested, and the IC50 was under 100 nM. COc1ccc2c(c1)OCCn1c-2c(C2CCCCC2)c2ccc(C(=O)N[C@@H](Cc3ccc(OC(C)=O)cc3)c3noc(=O)[nH]3)cc21 [Example 2-430, 4-[(S)-2-[(12-cyclohexyl-3-methoxy-6,7-dihydro-5-oxa-7a-azadibenzo[a,e]azulene-9-carbonyl)amino]-2-(5-oxo-4,5-dihydro-1,2,4-oxadiazol-3-yl)ethyl]phenyl acetate] gave an IC50 of under 100 nM. Work on COc1ccc2c(c1)OCCn1c-2c(C2CCCCC2)c2ccc(C(=O)N[C@@H](Cc3ccc(OC(C)=O)cc3)C3=NC(C)(C)C(=O)O3)cc21 [Example 2-431, 4-[(S)-2-[(12-cyclohexyl-3-methoxy-6,7-dihydro-5-oxa-7a-azadibenzo[a,e]azulene-9-carbonyl)amino]-2-(4,4-dimethyl-5-oxo-4,5-dihydrooxazol-2-yl)ethyl]phenyl acetate] yielded an IC50 of under 100 nM. For COc1ccc2c(c1)OCCn1c-2c(C2CCCCC2)c2ccc(C(=O)NC(C)(C)c3nc4ccccc4n3CCN3CCOCC3)cc21 [Example 2-432, N-(1-methyl-1-{1-[2-(morpholin-4-yl)ethyl]-1H-benzimidazol-2-yl}ethyl)-12-cyclohexyl-3-methoxy-6,7-dihydro-5-oxa-7a-azadibenzo[a,e]azulene-9-carboxamide], the IC50 was under 100 nM. Molecule COc1ccc2c(c1)OCCn1c-2c(C2CCCCC2)c2ccc(C(=O)NC(C)(C)c3nc4ccccc4n3CCO)cc21 [Example 2-433, N-{1-[1-(2-hydroxyethyl)-1H-benzimidazol-2-yl]-1-methylethyl}-12-cyclohexyl-3-methoxy-6,7-dihydro-5-oxa-7a-azadibenzo[a,e]azulene-9-carboxamide] has an IC50 of under 100 nM. With COCCn1c(C(C)(C)NC(=O)c2ccc3c(C4CCCCC4)c4n(c3c2)CCOc2cc(OC)ccc2-4)nc2ccccc21 [Example 2-434, N-{1-[1-(2-methoxyethyl)-1H-benzimidazol-2-yl]-1-methylethyl}-12-cyclohexyl-3-methoxy-6,7-dihydro-5-oxa-7a-azadibenzo[a,e]azulene-9-carboxamide] the IC50 was under 100 nM. With CCOC(=O)[C@H](Cc1ccc(O)cc1)NC(=O)c1ccc2c(C3CCCCC3)c3n(c2c1)CCOc1cc(OC)ccc1-3 [Example 2-435, ethyl (S)-2-[(12-cyclohexyl-3-methoxy-6,7-dihydro-5-oxa-7a-azadibenzo[a,e]azulene-9-carbonyl)amino]-3-(4-hydroxyphenyl)propionate] the IC50 was under 100 nM. Molecule COc1ccc2c(c1)OCCn1c-2c(C2CCCCC2)c2ccc(C(=O)NC(Cc3ccc(O)cc3)C(C)C)cc21 (stereo not shown) [Example 2-436, N-[1-(4-hydroxybenzyl)-2-methylpropyl]-12-cyclohexyl-3-methoxy-6,7-dihydro-5-oxa-7a-azadibenzo[a,e]azulene-9-carboxamide] has an IC50 of under 100 nM. COCCOc1cc2[nH]c(C3(NC(=O)c4ccc5c(C6CCCCC6)c6n(c5c4)CCOc4cc(OC)ccc4-6)CCC3)nc2cc1C(=O)O [Example 2-437, 2-{1-[(12-cyclohexyl-3-methoxy-6,7-dihydro-5-oxa-7a-azadibenzo[a,e]azulene-9-carbonyl)amino]cyclobutyl}-6-(2-methoxyethoxy)-1H-benzimidazole-5-carboxylic acid] gave an IC50 of under 100 nM. COCCOc1cc2[nH]c(C3(NC(=O)c4ccc5c(C6CCCCC6)c6n(c5c4)CCOc4cc(OC)ccc4-6)CCC3)nc2cc1CO [Example 2-438, N-{1-[5-hydroxymethyl-6-(2-methoxyethoxy)-1H-benzimidazol-2-yl]cyclobutyl}-12-cyclohexyl-3-methoxy-6,7-dihydro-5-oxa-7a-azadibenzo[a,e]azulene-9-carboxamide] was tested, and the IC50 was under 100 nM. Molecule COc1ccc2c(c1)OCCn1c-2c(C2CCCCC2)c2ccc(C(=O)NC3(c4nc5ccc(O)cc5[nH]4)CCC3)cc21 [Example 2-439, N-[1-(6-hydroxy-1H-benzimidazol-2-yl)cyclobutyl]-12-cyclohexyl-3-methoxy-6,7-dihydro-5-oxa-7a-azadibenzo[a,e]azulene-9-carboxamide] has an IC50 of under 100 nM. For COc1ccc2c(c1)OCCn1c-2c(C2CCCCC2)c2ccc(C(=O)N[C@@H](Cc3c[nH]c4ccc(OCC(=O)O)cc34)c3csc(C)n3)cc21 [Example 2-440, {3-[(S)-2-[(12-cyclohexyl-3-methoxy-6,7-dihydro-5-oxa-7a-azadibenzo[a,e]azulene-9-carbonyl)amino]-2-(2-methylthiazol-4-yl)ethyl]-1H-indol-5-yloxy}acetic acid], the IC50 was under 100 nM. Work on COc1ccc2c(c1)OCCn1c-2c(C2CCCCC2)c2ccc(C(=O)N[C@H](C#N)Cc3ccc(O)cc3)cc21 [Example 2-441, N—[(S)-cyano-(4-hydroxybenzyl)-methyl]-12-cyclohexyl-3-methoxy-6,7-dihydro-5-oxa-7a-azadibenzo[a,e]azulene-9-carboxamide] yielded an IC50 of under 100 nM. With COC(=O)C(N)Cc1ccc(C(C)(C)NC(=O)c2ccc3c(C4CCCCC4)c4n(c3c2)CCOc2cc(OC)ccc2-4)cc1 (stereo not shown) [Example 2-442, methyl 2-amino-3-(4-{1-[(12-cyclohexyl-3-methoxy-6,7-dihydro-5-oxa-7a-azadibenzo[a,e]azulene-9-carbonyl)amino]-1-methylethyl}phenyl)propionate monohydrochloride] the IC50 was under 100 nM. For COc1ccc2c(c1)OCCn1c-2c(C2CCCCC2)c2ccc(C(=O)NC(C)(C)c3ccc(CC(NC(C)=O)C(=O)O)cc3)cc21 (stereo not shown) [Example 2-443, 2-acetylamino-3-(4-{1-[(12-cyclohexyl-3-methoxy-6,7-dihydro-5-oxa-7a-azadibenzo[a,e]azulene-9-carbonyl)amino]-1-methylethyl}phenyl)propionic acid], the IC50 was under 100 nM. COc1ccc2c(c1)OCCn1c-2c(C2CCCCC2)c2ccc(C(=O)NC(C)(C)c3ccc(CC(N)C(=O)O)cc3)cc21 (stereo not shown) [Example 2-444, 2-amino-3-(4-{1-[(12-cyclohexyl-3-methoxy-6,7-dihydro-5-oxa-7a-azadibenzo[a,e]azulene-9-carbonyl)amino]-1-methylethyl}phenyl)propionic acid] gave an IC50 of under 100 nM. In the case of COc1ccc2c(c1)OCCn1c-2c(C2CCCCC2)c2ccc(C(=O)NC3(c4nc5ccc(C(C)(C)C(=O)O)cc5[nH]4)CCC3)cc21 [Example 2-445, 2-(2-{1-[(12-cyclohexyl-3-methoxy-6,7-dihydro-5-oxa-7a-azadibenzo[a,e]azulene-9-carbonyl)amino]cyclobutyl}-3H-benzimidazol-5-yl)-2-methylpropionic acid], the IC50 is reported as under 100 nM. Work on CCOc1ccc2c(c1)OCCn1c-2c(C2CCCCC2)c2ccc(C(=O)NC3(C(=O)Nc4ccc(/C=C/C(=O)O)cc4)CCC3)cc21 [Example 2-446, (E)-3-[4-({1-[(12-cyclohexyl-3-ethoxy-6,7-dihydro-5-oxa-7a-azadibenzo[a,e]azulene-9-carbonyl)amino]cyclobutanecarbonyl}amino)phenyl]acrylic acid] yielded an IC50 of under 100 nM.
